Results reported in patent US6635668B1, “Imidazoline receptor binding compounds” (The University of North Carolina at Chapel Hill, priority 1998, dated 2003).
Entries after “also recorded” stand apart in the source; their conditions may differ. Where a name gives a salt, the structure may show the parent alone.

What was measured:
[1] = test system: Pneumocystis carinii; test: Anti-Pneumocystis carinii activity, P. carinii pneumonia in the rat; assay type: in vivo; details: for anti-P. carinii activity (in words): rat, compared with pentamidine
Procedure: Anti-Pneumocystis carinii activity. Induction, treatment and evaluation of P. carinii pneumonia in the rat was carried out according to methods described previously (Jones, S. K. et al., Antimicrob. Agents Chemother. 34, 1026-1030 (1990)). To summarize the scoring procedure, the mean histologic scores were determined by two examiners using a blinded protocol. P. carinii cysts were counted in the stained lung sections and assigned the following values; 0.5—less than 10 cysts counted per two fully examined sections; 1—scattered cysts with less than 10% of the lung tissue involved; 2—scattered cysts with limited intense focal involvement and 10 to 25% of lung tissue involved; 3—scattered cysts with numerous intense areas of focal involvement and 26 to 50% of lung tissue involved; 4—cysts found throughout the tissue with numerous intense focal areas of involvement having greater than 50% of lung tissue involved.

[2] = target: imidazoline I2 sites; test: Competition binding of 5 nM [3H]idazoxan to rat liver membranes; details: for Ki: 5 nM [3H]idazoxan (Kd 14 ± 2 nM), mean ± SD, compounds 4 and 8 mean ± 95% confidence intervals; for Hill Slope: inhibition of [3H]idazoxan binding
Procedure: Membrane preparation. Membranes were prepared in accordance with known techniques (R. Zonnenchein et al., Eur. J. Pharmacol. 190, 203-215 (1990)). […] The livers were weighed and minced with scissors before being homogenized at 4° C. in solution A (0.25 M sucrose containing 0.1 mM phenylmethyl sulfonyl fluoride 1:10 v/v) for 1 min using a Biospec homogenizer (Bartlesville, Okla., USA). The homogenate was centrifuged at 600×g for 10 min at 4° C. The resulting pellet was washed with solution A, discarded and the supernatant fractions were combined and centrifuged at 12,000×g for 30 min. This pellet was washed then resuspended in cold buffer B (50 mM Tris/HCl pH 7.4). Using a Bio-Rad (Hercules, Calif., USA) assay kit, the protein concentration was determined using bovine serum albumin as the standard according to the assay of Bradford et al. (Bradford, M. M., 1976. Anal. Biochem. 72, 248-254.). The preparation was stored at −80° C. at a concentration of 20 mg protein/ml. Competition binding studies. Competition experiments were performed in 1 ml buffer B containing 5 nM [^3H]idazoxan. […] In all experiments, bound and free radioligand were separated by vacuum filtration through Whatman GF/C filters and washed with 2×10 ml cold buffer B. Radioactivity on filters was determined by liquid scintillation spectroscopy using a Packard Tri-Carb 2100TR. […] Data analysis. Binding analyses, statistics and graphics were performed using Prism 2.01 (Graphpad Software, Inc., San Diego, Calif., USA). […] The calculated log of the octanol:water partition coefficient (ClogP) was calculated using MedChem Software 3.5 (Daylight Chemical Information Systems, New Orleans, La., USA).

[3] = target: imidazoline receptor; test: Imidazoline receptor binding (Tables 2 and 3); details: Table 2
[4] = target: imidazoline I2 sites; test: [3H]Idazoxan saturation binding in rat liver membranes; details: 22° C., 45 min, read-out: Kd for saturable binding
Procedure: Membrane preparation. Membranes were prepared in accordance with known techniques (R. Zonnenchein et al., Eur. J. Pharmacol. 190, 203-215 (1990)). Briefly, male Sprague-Dawley rats (Hilltop, Scottsdale, Pa., USA) weighing approximately 250-300 g were decapitated, their livers rapidly removed and immediately placed into 0.25 M cold sucrose solution. The livers were weighed and minced with scissors before being homogenized at 4° C. in solution A (0.25 M sucrose containing 0.1 mM phenylmethyl sulfonyl fluoride 1:10 v/v) for 1 min using a Biospec homogenizer (Bartlesville, Okla., USA). The homogenate was centrifuged at 600×g for 10 min at 4° C. The resulting pellet was washed with solution A, discarded and the supernatant fractions were combined and centrifuged at 12,000×g for 30 min. This pellet was washed then resuspended in cold buffer B (50 mM Tris/HCl pH 7.4). Using a Bio-Rad (Hercules, Calif., USA) assay kit, the protein concentration was determined using bovine serum albumin as the standard according to the assay of Bradford et al. (Bradford, M. M., 1976. Anal. Biochem. 72, 248-254.). The preparation was stored at −80° C. at a concentration of 20 mg protein/ml. Saturation binding studies. Binding studies were performed in triplicate in 1 ml buffer B containing [^3H]idazoxan (0.1-50 nM). […]

Ki [2] [nM] | Hill Slope [2] | Ki [3] [nM] | Structure (SMILES) | other results
~30000 | −0.3 | – | N=C(N)c1ccc(O)cc1 [Compound 11, 4-hydroxybenzamidine] | anti-P. carinii activity (in words) [1]: no activity at all
~3500 | −0.9 | – | COc1cc(C(=N)N)ccc1OCCCOc1ccc(C(=N)N)cc1OC [Compound 6] | anti-P. carinii activity (in words) [1]: greater than pentamidine; also recorded: equally effective
– | −0.8 | – | N=C(N)c1ccc(OCCCOc2ccc(C(=N)N)cc2)cc1 [Compound 7] | –
– | −0.8 | – | N=C(N)c1ccc(OCCCCOc2ccc(C(=N)N)cc2)cc1 [Compound 4] | anti-P. carinii activity (in words) [1]: greater than pentamidine
– | – | 18100 | N=C(N)c1ccc2c(c1)[nH]c1cc(C(=N)N)ccc12 [DAP 092] | –
– | – | 5500 | CC(C)NC(=N)c1ccc(-c2ccc(-c3ccc(C(=N)NC(C)C)cc3)o2)cc1 [DB 181] | –
3.2 ± 0.36 | −1.2 | – | N=C(N)c1ccc(OCCCCCCOc2ccc(C(=N)N)cc2)cc1 [Compound 2] | anti-P. carinii activity (in words) [1]: greater than pentamidine
– | – | 44800 | c1cc2[nH]c(CCCCc3nc4cc(C5=NCCN5)ccc4[nH]3)nc2cc1C1=NCCN1 [BIBB] | –
> 5000 | – | – | Cc1ccc(N(CC2=NCCN2)c2cccc(O)c2)cc1 [Phentolamine, phentolamine, reference compound] | –
– | – | – | [3H]c1cc2c(cc1[3H])OC(C1=NCCN1)CO2 (stereo not drawn) [[^3H]idazoxan, (1,4-[6,7-^3H]-benzodioxan-2-yl)-2-imidazoline hydrochloride] | Kd [4]: 14 ± 2 nM
319 ± 39.5 | −0.8 | – | N=C(N)c1ccc(OCCCCCO)cc1 [Compound 9] | anti-P. carinii activity (in words) [1]: no activity at all
– | – | 3780 | N=C(N)c1ccc(-c2ccc(-c3ccc(C(=N)N)cc3)[nH]2)cc1 [DB 262] | –
– | – | 158 | N=C(N)c1cccc(OCCCCCOc2cccc(C(=N)N)c2)c1 [001 KAO 011] | –
1.4 ± 0.22 | −0.8 | – | N=C(N)c1ccc(OCCCCCOc2ccc(C(=N)N)cc2)cc1 [Compound 1, pentamidine, reference compound] | mean histologic score ([1]; rat lung sections, saline control 3.8 out of a possible 4.0): 1.3
– | – | 347000 | N=C(N)c1ccc2nc(C3=CCC=C(c4nc5ccc(C(=N)N)cc5[nH]4)N3)[nH]c2c1 [DB 205] | –
50.1 ± 1.06 | −0.9 | – | COc1cc(C2=NCCN2)ccc1OCCCOc1ccc(C2=NCCN2)cc1OC [Compound 5] | anti-P. carinii activity (in words) [1]: greater than pentamidine; also recorded: equally effective
– | – | 653 | N=C(N)c1ccc(-c2ccc(-c3ccc(C(=N)N)cc3)o2)cc1 [DB 75] | –
– | – | 6760 | N=C(NC1CCCC1)c1ccc(-c2ccc(-c3ccc(C(=N)NC4CCCC4)cc3)o2)cc1 [DB 244] | –
– | – | 111 | N=C(N)c1ccc(-c2ccc(-c3ccc(C(=N)N)cc3)s2)cc1 [DB 351] | –
4.3 ± 1.09 | −0.8 | – | c1cc(C2=NCCN2)ccc1OCCCCCOc1ccc(C2=NCCN2)cc1 [Compound 3] | anti-P. carinii activity (in words) [1]: greater than pentamidine
3 ± 0.4 | – | – | c1ccc(C2CC2)c(OCC2=NCCN2)c1 [Cirazoline, cirazoline, reference compound] | –
– | – | 65600 | N=C(N)c1ccc2[nH]c(-c3ccc4[nH]c(-c5ccc(O)cc5)nc4c3)nc2c1 [DB 183] | –
– | – | 5530 | N=C(N)c1ccc2[nH]c(CCCCc3nc4cc(C(=N)N)ccc4[nH]3)nc2c1 [BABB] | –
– | – | 236 | c1cc(-c2ccc(-c3ccc(C4=NCCCN4)cc3)o2)ccc1C1=NCCCN1 [DB 103] | –
– | – | 44700 | N=C(N)c1ccc2[nH]c3ccc(C(=N)N)cc3c2c1 [003 KAO 111] | –
228 ± 36.5 | −0.8 | – | COc1ccc(C(=N)N)cc1 [Compound 10, 4-methoxybenzamidine] | –
62 ± 25 | −0.8 | – | N=C(N)c1ccc(OCCCCCOc2ccc([N+](=O)[O-])cc2)cc1 [Compound 8] | –
580 ± 61.3 | −0.8 | – | N=C(N)c1ccccc1 [Compound 12, benzamidine] | –
– | – | 630 | c1cc(-c2ccc(-c3ccc(C4=NCCN4)cc3)o2)ccc1C1=NCCN1 [DB 60] | –

Structure (SMILES) | Ki [2] [nM] | Hill Slope [2] | Ki [3] [nM] | other results
N=C(N)c1ccc2[nH]c(Cc3nc4cc(C(=N)N)ccc4[nH]3)nc2c1 [BABIM] | – | – | 7510 | –
